Test results taken from patent publication US20250049809A1, “INHIBITORS OF MUTANT IDH1 AND IDH2” (Board of Regents, The University of Texas System, priority 2023, published 2025).

Key:
U87 IDH1R132H = U87 IDH1R132H (Homo sapiens (Human), UniProt O75874, R132H); assay: U87 IDH1 R132H 2-HG cellular assay; type: cell-based; details: extracellular 2HG, 24 h treatment, IDH1 mutant-U-87 isogenic cell line
Method: The IDH1 mutant-U-87 isogenic cell line (ATCC HTB-14IG) used to test cellular inhibition is a glioma IDH1R132H mutant isogenic line derived from the parental U-87MG cell line. These cells are maintained in EMEM (ATCC 30-2003) culture media with 10% FBS and 10 U/mL Penicillin-Streptomycin. Twelve thousand cells are plated in polystyrene 384 well cell culture plates (Greiner Bio-One 781091) (12,000 cells/well) approximately 18 hours before compound treatment. Immediately before treatment, the cells are washed twice with PBS, followed by culture media replenishing. Cells are then treated with different concentrations of test compounds (5 μM to 0.3 pM) for 24 h. Extracellular 2HG levels are measured from cell culture media. For analyte extraction, 30 μL of culture media is transferred to 120 uL 100% acetonitrile in a deep 384 well plate and mixed well, followed by 5 min centrifugation at 3700 rpm at room temperature. 100 μL of supernatant is transferred to a flat bottom 384 well plate. Samples are run on the Agilent RapidFire-Mass Spectrometry instrument to detect 2HG levels. The samples from each well were aspirated for 600 ms and loaded onto a HILIC solid-phase extraction cartridge (Agilent) followed by a wash step for 3000 ms with 90% acetonitrile containing 5 mM ammonium acetate. Analytes were then eluted off the cartridge into the Agilent 6460 Triple Quad mass spectrometer with a 4500 ms elution step using 30% acetonitrile containing 5 mM ammonium acetate. The HILIC cartridge was then re-equilibrated by 90% acetonitrile containing 5 mM ammonium acetate for 500 ms. The 2HG was detected by an Agilent 6460 Triple Quad mass spectrometer in negative ion mode. Multiple reaction monitoring was used to quantify 2HG using the precursor ion and product ion at m/z 147.03 and 128.9, respectively. The percent activity of each sample is calculated by using DMSO and control compound treated references, and IC50 values are obtained using the GeneData Screener data analysis program.

mIDH1R132H/S280F = mIDH1R132H/S280F (Homo sapiens (Human), UniProt O75874, R132H/S280F); assay: mIDH1 R132H/S280F enzymatic activity assay (NADPH fluorescence); type: biochemical; details: enzyme assay, 1 hour preincubation; read-out: IDH1R132H/S280F IC50
Sequence of mIDH1R132H/S280F (O75874 whole entry R132H/S280F): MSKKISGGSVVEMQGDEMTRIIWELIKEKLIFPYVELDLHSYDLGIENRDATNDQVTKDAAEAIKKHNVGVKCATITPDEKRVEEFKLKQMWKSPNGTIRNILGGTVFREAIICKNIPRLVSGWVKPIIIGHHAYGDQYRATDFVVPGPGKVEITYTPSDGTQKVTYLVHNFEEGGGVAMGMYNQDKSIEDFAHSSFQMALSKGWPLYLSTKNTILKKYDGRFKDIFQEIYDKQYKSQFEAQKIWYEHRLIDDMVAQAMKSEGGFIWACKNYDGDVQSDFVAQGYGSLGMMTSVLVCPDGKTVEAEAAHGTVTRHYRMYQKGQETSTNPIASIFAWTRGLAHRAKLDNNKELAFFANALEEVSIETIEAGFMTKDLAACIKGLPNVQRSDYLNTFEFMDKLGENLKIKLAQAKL
Method: (§1) The enzymatic activity of mIDH1R132H/S280F was assessed by measuring the fluorescence of the NADPH. The assay was performed in 384 well, white ProxiPlates (PerkinElmer, 6008280) in assay buffer containing 50 mM Hepes (Life Technologies, 15630080), 50 mM KCl (Teknova, P0327), 10 mM MgCl2 (Sigma-Aldrich, M1028), 1 mM DTT (Sigma-Aldrich, 43815), 0.02% BSA (Sigma-Aldrich, A3059) at pH 7.5. The final reaction volume was 10 μL. Stock solutions of the test compounds were prepared in 100% DMSO (Sigma, D2650) and serially diluted 1:3 using 100% DMSO. 50 nL of compound were then transferred to the assay plate using the Beckman Coulter ECHO 650 Acoustic Liquid Handler for a final DMSO concentration of 0.5%. 5 μL of a mIDH1R132H/S280F and NADPH (Santa Cruz, SC202725C) mixture were added to the assay plate for a final concentration of 2 nM and 10 PM, respectively. 5 μL of NADPH alone were added to negative control wells followed by a 1 hour preincubation at room temperature. 5 μL of alphaketoglutarate (Sigma-Aldrich, K1128) were added to the assay plate for a final concentration of 120 μM. Fluorescence of NADPH (excitation: 350 nm, emission 450 nm) was immediately measured kinetically for approximately 90 minutes using the BioTek Synergy Neo plate reader.

mIDH2R140Q = mIDH2R140Q (Homo sapiens (Human), UniProt P48735, R140Q); assay: mIDH2 R140Q enzymatic activity assay (NADPH fluorescence); type: biochemical; details: enzyme assay, 1 hour preincubation; read-out: IDH2R140Q IC50
Sequence of mIDH2R140Q (P48735 40-452 R140Q): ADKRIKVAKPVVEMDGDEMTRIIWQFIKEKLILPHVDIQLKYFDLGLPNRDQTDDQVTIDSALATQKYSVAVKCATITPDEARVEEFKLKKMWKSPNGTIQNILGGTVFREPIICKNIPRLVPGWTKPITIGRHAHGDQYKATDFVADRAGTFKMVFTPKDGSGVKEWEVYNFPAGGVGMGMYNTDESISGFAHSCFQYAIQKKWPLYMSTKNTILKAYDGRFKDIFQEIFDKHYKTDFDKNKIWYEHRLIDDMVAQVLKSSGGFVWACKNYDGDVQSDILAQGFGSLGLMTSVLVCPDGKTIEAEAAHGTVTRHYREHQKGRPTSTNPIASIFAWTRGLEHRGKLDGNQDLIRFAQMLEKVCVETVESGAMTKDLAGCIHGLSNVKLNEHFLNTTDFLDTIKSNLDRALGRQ
Method: as §1, with “of mIDH2R140Q” for “of mIDH1R132H/S280F”, “a mIDH2R140Q” for “a mIDH1R132H/S280F”, “of 3” for “of 2”, “10 μM,” for “10 PM,”, “of 300” for “of 120”, “approximately 150” for “approximately 90”

Sequence of U87 IDH1R132H (O75874 whole entry R132H): as the sequence (O75874 whole entry R132H/S280F) above, with F280S counted along it

Row | IC50 (U87 IDH1R132H) [µM] | IC50 (mIDH1R132H/S280F) [µM] | IC50 (mIDH2R140Q) [µM] | Structure (SMILES)
1 | 0.00014 | 0.26 | 1.44 | C=CC(=O)N1CCN(C2CCCC/C=C/CN3C(=O)OCc4cnc(nc43)N[C@@H](C)c3ccc2cc3)CC1 (stereo partly drawn) [Example 3, (3S,E)-5-(4-acryloylpiperazin-1-yl)-3-methyl-1^1,1^4-dihydro-1^2H-2-aza-1(7,1)-pyrimido[4,5-d][1,3]oxazina-4(1,4)-benzenacyclododecaphan-10-en-1^2-one]
2 | 0.0002 | 0.295 | 1.68 | C=CC(=O)N1CCN(C2CCCCCCCN3C(=O)OCc4cnc(nc43)N[C@@H](C)c3ccc2cc3)CC1 (stereo partly drawn) [Example 4, (3S)-5-(4-acryloylpiperazin-1-yl)-3-methyl-1^1,1^4-dihydro-1^2H-2-aza-1(7,1)-pyrimido[4,5-d][1,3]oxazina-4(1,4)-benzenacyclododecaphan-1^2-one]
